Assay results as given in patent US5124350A, “Leukotriene B4 antagonists” (G. D. Searle & Co., priority 1990, dated 1992).

What was measured:
LTB4 Receptor = target: T1, LTB4 Receptor (Homo sapiens, UniProt Q15722); assay: LTB4 Receptor Binding Assay ((3H) LTB4, human neutrophils); details: relative to the compound of Example 1 (b), defined as 1.0
T1 construct: Neutrophils were purified from venous blood of normal human donors; endogenous in cells; host or cells: neutrophils from venous blood of normal human donors
T1 sequence (Q15722 whole entry): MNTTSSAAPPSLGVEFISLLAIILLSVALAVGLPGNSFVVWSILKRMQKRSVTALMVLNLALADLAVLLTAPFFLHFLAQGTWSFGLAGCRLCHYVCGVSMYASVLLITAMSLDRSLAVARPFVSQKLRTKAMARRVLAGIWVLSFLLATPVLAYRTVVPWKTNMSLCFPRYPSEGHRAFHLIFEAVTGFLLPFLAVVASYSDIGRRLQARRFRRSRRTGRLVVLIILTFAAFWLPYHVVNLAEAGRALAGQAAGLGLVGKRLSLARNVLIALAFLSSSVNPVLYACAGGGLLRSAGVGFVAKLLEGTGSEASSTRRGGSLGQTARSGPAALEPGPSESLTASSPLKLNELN
Experimental: (§1) Neutrophils were purified from venous blood of normal human donors using standard techniques of dextran sedimentation, centrifugation on Ficoll-paque® (Pharmacia) or Histopaque® sterile solution (Sigma) and hypotonic lysis of erythrocytes (Boyum, A., Isolation of Leukocytes From Human Blood: Further Observations. Scand. J. Lab. Clin. Invest., 21 (Suppl. 97): 31, 1968). The purity of isolated neutrophils was>95%.
Neutrophils (4-6×10^6) in 1 ml Hanks' balanced salt solution (HBSS) containing 10 mM HEPES buffer , pH 7.4 and […] nordihydroguaiaretic acid were incubated with 0.6×10^-9 M (^3 H) LTB4 in the presence or absence of test compounds. The incubation was carried out at 0° C. for 45 minutes and terminated by adding 5ml of ice-cold HBSS followed by rapid filtration of the incubation mixture under vacuum through GF/C glass fiber filters. The filters were further washed with 10 ml HBSS and radioactivity was determined. Specific binding was defined as the difference between total binding and nonspecific binding which was not displaced by 10^-7 M unlabeled LTB4. All data refer to specific binding.

[1] = tested on: Human neutrophils (LTB4 chemotaxis); assay: Modified Boyden Chamber Chemotaxis, LTB4; assay type: cell-based; details: relative to the compound of Example 1 (b), defined as 1.0; 3×10^-8 M LTB4
Source text: as §1
(§2) Human neutrophils were isolated from citrated peripheral blood using standard techniques of dextran sedimentation, followed by centrifugation on Histopaque® sterile solution (Sigma) or Ficoll-paque® (Pharmacia) and hypotonic lysis of erythrocytes. A final cell suspension of 3.4×10^6 neutrophils/ml of HEPES-buffered Hanks' balanced salt solution (HBSS, pH 7.3) was added to the upper well (0.8 ml ) of a modified Boyden chamber (blind well). The lower well (0.2 ml), separated by a polycarbonate membrane (Nucleopore Corp.), contained HBSS or 3×10^-8 M LTB4 in the presence or absence of test compound. […] The number of neutrophils migrating into the lower chamber in the absence of chemoattractant was subtracted from the number of cells migrating in the presence of a chemoattractant. Inhibition of chemotaxis by test compounds was expressed as percent inhibition relative to uninhibited control.
(§3) Data are expressed as potency relative to the compound of Example i(b ), 7-[3,(4-acetyl-3-methoxy-2propylphenoxy)propoxy]-3,4-dihydro-8-propyl-2H-1-benzopyran-2-carboxylic acid, which is disclosed in U.S. Pat. No. 4,889,871.

[2] = tested on: Human neutrophils (fMLP chemotaxis); assay: Modified Boyden Chamber Chemotaxis, fMLP; assay type: cell-based; details: relative to the compound of Example 1 (b), defined as 1.0
Source text: [The procedure below names another target; the source lists this target under the same test.] as §1, §2, §3

| SMILES | Relative Potency, LTB4 Receptor Binding (LTB4 Receptor) | Relative Potency, Chemotaxis LTB4 [1] | Relative Potency, Chemotaxis fMLP [2] |
| --- | --- | --- | --- |
| C=CCc1c(OCCCOc2ccc3c(c2CCC)OC(CCC(=O)O)CC3)ccc(C(=O)NC)c1OC (stereo not drawn) [Example 9, 3,4-Dihydro-7-[3-[3-methoxy-4-[(methylamino)carbonyl]-2-(2-propenyl)phenoxy]propoxy]8-propyl-2H-1-benzopyran-2-propanoic acid] | 8.9 | 12.3 | 0.38 |
| CCCc1c(OCCCOc2ccc(C(=O)NC)c(OC)c2CCC)ccc2c1OC(CCC(=O)O)CC2 (stereo not drawn) [Example 14, 3,4-Dihydro-7-[3-[3-methoxy-4-[(methylamino)carbonyl]-2-propylphenoxy]propoxy]-8-propyl-2H-1-benzopyran-2-propanoic acid] | 4.0 | 4.1 | 0.52 |
| CCCc1c(OCCCOc2ccc(C(=O)NC)c(OC)c2CC2CC2)ccc2c1OC(C(=O)O)CC2 (stereo not drawn) [Example 19, 7-[3-[2-(Cyclopropylmethyl)-3-methoxy-4-[(methylamino)carbonyl]phenoxy]propoxy]-3,4-dihydro-8-propyl-2H-1-benzopyran-2-carboxylic acid] | 5.3 | 16.9 | 1.57 |
| C=CCc1c(OCCCOc2ccc3c(c2CCC)OC(C(=O)O)CC3)ccc(C(=O)NC)c1OC (stereo not drawn) [Example 26, 3,4-Dihydro-7-[3-[3-methoxy-4-[(methylamino)carbonyl]-2-(2-propenyl)phenoxy]propoxy]-8-propyl 2H-1-benzopyran-2-carboxylic acid] | 2.1 | 7.6 | 0.95 |
| C=CCc1c(OCCCOc2ccc3c(c2CCC)OC(C(=O)O)CC3)ccc(C(=O)N2CCCC2)c1OC (stereo not drawn) [Example 29, 3,4-Dihydro-7-[3-[3-methoxy-2-(2-propenyl)-4-(1-pyrrolidinylcarbonyl)phenoxy]propoxy]-8-propyl-2H-1-benzopyran-2-carboxylic acid] | 1.0 | 0.18 |  |
| C=CCc1c(OCCCOc2ccc3c(c2CCC)OC(C(=O)O)CC3)ccc(C(N)=O)c1OC (stereo not drawn) [Example 32, 7-[3-[4-(Aminocarbonyl)-3-methoxy-2-(2-propenyl)phenoxy]propoxy]-3,4-dihydro-8-propyl-2H-1-benzopyran-2-carboxylic acid] | 2.1 | 4.0 | 1.5 |
| CCCc1c(OCCCOc2ccc(C(=O)NC)c(OC)c2CCC)ccc2c1OC(C(=O)O)CC2 (stereo not drawn) [Example 35, 3,4-Dihydro-7-[3-[3-methoxy-2-propyl-4-[(methylamino)carbonyl]phenoxy]propoxy]-8-propyl-2H-1-benzopyran-2-carboxylic acid] | 0.81 | 2.6 |  |
| CCCc1c(OCCCOc2ccc(C(N)=O)c(OC)c2CCC)cccc1OCC(=O)O [Example 43, [3-[3-[4-(Aminocarbonyl)-3-methoxy-2-propylphenoxy]propoxy]-2-propylphenoxy]acetic acid] | 0.83 | 1.1 | ≤ 0.63 |
| CCCc1c(OCCCOc2ccc(C(=O)NC)c(OC)c2CCC)cccc1OCC(=O)O [Example 46, [3-[3-[3-Methoxy-4-[(methylamino)carbonyl]-2-propylphenoxy]propoxy]-2-propylphenoxy]acetic acid] | 0.71 | 0.58 | ≤ 0.048 |
| CCCc1c(OCCCOc2ccc(C(=O)N3CCCC3)c(OC)c2CCC)cccc1OCC(=O)O [Example 50, [3-[3-[3-Methoxy-2-propyl-4-(1-pyrrolidinylcarbonyl)phenoxy]propoxy]2-propylphenoxy]acetic acid] | 0.04 | 0.05 | < 0.48 |
| C=CCc1c(OCCCOc2cccc(OCC(=O)O)c2CCC)ccc(C(N)=O)c1OC [Example 56, [3-[3-[4-(Aminocarbonyl)-3-methoxy-2-(2-propenyl)phenoxy]propoxy]-2-propylphenoxy] acetic acid] | 1.0 | 2.6 | < 0.63 |
| C=CCc1c(OCCCOc2cccc(OCC(=O)O)c2CCC)ccc(C(=O)N2CCCC2)c1OC [Example 59, [3-[3-[3-Methoxy-2-(2-propenyl)-4-(1-pyrrolidinylcarbonyl)phenoxy]propoxy]-2-propylphenoxy]acetic acid] | 0.04 | < 0.9 |  |
| CCCc1c(OCCCOc2ccc(C(=O)NC)c(OC)c2CC2CC2)ccc2c1OC(CCC(=O)O)CC2 (stereo not drawn) [Example 62, 7-[3-[2-(Cyclopropylmethyl)-3-methoxy-4-[(methylamino)carbonyl]phenoxy]propoxy]-3,4-dihydro-8-propyl-2H-1-benzopyran-2-propanoic acid] | 8.5 | 17.4 | 0.69 |
